# Measurements taken from article PMC5218480 (PLoS ONE, 2017).
# System: MV-4-11 cells
# Assay: Gene expression microarray analysis (Affymetrix PrimeView) and GSEA
# Assay type: cell-based, human
# Design: RFU PODN (11730768_x_at) / Fold change /veh PODN (11730768_x_at) / RFU LINC00158 (11744669_a_at) / Fold change /veh LINC00158 (11744669_a_at) / RFU DUSP10 (11751237_a_at) / Fold change /veh DUSP10 (11751237_a_at) / RFU ID3 (11757404_x_at) / Fold change /veh ID3 (11757404_x_at) / RFU PLEKHG5 (11737974_s_at) / Fold change /veh PLEKHG5 (11737974_s_at) / RFU LRRC4B (11730491_at) / Fold change /veh LRRC4B (11730491_at) / RFU GIMAP4 (11747438_a_at) / Fold change /veh GIMAP4 (11747438_a_at) / RFU KRT8 (11758183_x_at) / Fold change /veh KRT8 (11758183_x_at) / RFU CNN1 (11734310_a_at) / Fold change /veh CNN1 (11734310_a_at) / RFU VPS37D (11726825_at) / Fold change /veh VPS37D (11726825_at) / RFU C10orf10 (11716522_x_at) / Fold change /veh C10orf10 (11716522_x_at) / RFU KIR2DL2 /// KIR2DL4 /// KIR2DL5A /// KIR2DL5B /// KIR2DS1 /// KIR2DS2 /// KIR2DS3 /// KIR2DS4 /// KIR3DL3 /// KIR3DL3 /// KIR3DS1 (11738374_at) / Fold change /veh KIR2DL2 /// KIR2DL4 /// KIR2DL5A /// KIR2DL5B /// KIR2DS1 /// KIR2DS2 /// KIR2DS3 /// KIR2DS4 /// KIR3DL3 /// KIR3DL3 /// KIR3DS1 (11738374_at) / RFU C1QL1 (11718748_at) / Fold change /veh C1QL1 (11718748_at) / RFU TMPRSS4 (11747572_a_at) / Fold change /veh TMPRSS4 (11747572_a_at) / RFU HAMP (11756126_x_at) / Fold change /veh HAMP (11756126_x_at) / RFU RNFT2 (11725882_a_at) / Fold change /veh RNFT2 (11725882_a_at) / RFU NR4A2 (11747474_a_at) / Fold change /veh NR4A2 (11747474_a_at) / RFU ABCC12 (11746883_a_at) / Fold change /veh ABCC12 (11746883_a_at) / RFU TMEM136 (11760407_x_at) / Fold change /veh TMEM136 (11760407_x_at) / RFU CLDN22 /// WWC2 (11732394_at) / Fold change /veh CLDN22 /// WWC2 (11732394_at) / RFU HLA-DPB1 (11760878_x_at) / Fold change /veh HLA-DPB1 (11760878_x_at) / RFU SPINT1 (11716480_a_at) / Fold change /veh SPINT1 (11716480_a_at) / RFU GAP43 (11754022_s_at) / Fold change /veh GAP43 (11754022_s_at) / RFU A4GNT (11735810_at) / Fold change /veh A4GNT (11735810_at) / RFU PRB3 (11715151_x_at) / Fold change /veh PRB3 (11715151_x_at) / RFU TUBB4B (11761932_at) / Fold change /veh TUBB4B (11761932_at) / RFU CAPN14 (11732068_a_at) / Fold change /veh CAPN14 (11732068_a_at) / RFU TMCC2 (11721928_a_at) / Fold change /veh TMCC2 (11721928_a_at) / RFU IRGQ (11745062_a_at) / Fold change /veh IRGQ (11745062_a_at) / RFU FAM174B (11720279_a_at) / Fold change /veh FAM174B (11720279_a_at) / RFU TMPRSS4 (11748680_a_at) / Fold change /veh TMPRSS4 (11748680_a_at) / RFU FAM212B (11763350_a_at) / Fold change /veh FAM212B (11763350_a_at) / RFU PLEKHG5 (11743358_a_at) / Fold change /veh PLEKHG5 (11743358_a_at) / RFU ZSCAN30 (11745921_a_at) / Fold change /veh ZSCAN30 (11745921_a_at) / RFU CMKLR1 (11741424_a_at) / Fold change /veh CMKLR1 (11741424_a_at) / RFU LOC101060620 /// MAPK8IP1 (11723275_at) / Fold change /veh LOC101060620 /// MAPK8IP1 (11723275_at) / RFU SPTSSB (11747773_x_at) / Fold change /veh SPTSSB (11747773_x_at) / RFU PRSS12 (11739890_at) / Fold change /veh PRSS12 (11739890_at) / RFU BIN1 (11741810_x_at) / Fold change /veh BIN1 (11741810_x_at) / RFU WNT11 (11732464_a_at) / Fold change /veh WNT11 (11732464_a_at) / RFU C10orf10 (11716521_a_at) / Fold change /veh C10orf10 (11716521_a_at) / RFU C5orf56 (11738089_at) / Fold change /veh C5orf56 (11738089_at) / RFU CYB561 (11721691_x_at) / Fold change /veh CYB561 (11721691_x_at) / RFU ANKRD19P (11752326_a_at) / Fold change /veh ANKRD19P (11752326_a_at) / RFU OR2T12 /// OR2T33 /// OR2T8 (11738714_s_at) / Fold change /veh OR2T12 /// OR2T33 /// OR2T8 (11738714_s_at) / RFU VCAN (11748164_a_at) / Fold change /veh VCAN (11748164_a_at) / RFU JSRP1 (11732532_at) / Fold change /veh JSRP1 (11732532_at) / RFU KRTAP10-11 (11738290_x_at) / Fold change /veh KRTAP10-11 (11738290_x_at) / RFU MYO3A (11730013_a_at) / Fold change /veh MYO3A (11730013_a_at) / RFU EBF3 (11725865_a_at) / Fold change /veh EBF3 (11725865_a_at) / RFU CAMK2N1 (11719241_x_at) / Fold change /veh CAMK2N1 (11719241_x_at) / RFU C5orf56 (11738088_a_at) / Fold change /veh C5orf56 (11738088_a_at) / RFU OLFML3 (11715873_a_at) / Fold change /veh OLFML3 (11715873_a_at) / RFU LOC100653217 /// NTM (11731650_a_at) / Fold change /veh LOC100653217 /// NTM (11731650_a_at) / RFU MAPK11 (11762145_a_at) / Fold change /veh MAPK11 (11762145_a_at) / RFU FIZ1 (11724087_x_at) / Fold change /veh FIZ1 (11724087_x_at) / RFU OASL (11726364_x_at) / Fold change /veh OASL (11726364_x_at) / RFU SOX15 (11748057_x_at) / Fold change /veh SOX15 (11748057_x_at) / RFU CD79A (11719716_a_at) / Fold change /veh CD79A (11719716_a_at) / RFU HIST1H1D (11736915_at) / Fold change /veh HIST1H1D (11736915_at) / RFU CASKIN2 (11723855_a_at) / Fold change /veh CASKIN2 (11723855_a_at) / RFU LOC730098 (11760151_x_at) / Fold change /veh LOC730098 (11760151_x_at) / RFU OR4N2 (11742367_at) / Fold change /veh OR4N2 (11742367_at) / RFU PRRT2 (11749266_a_at) / Fold change /veh PRRT2 (11749266_a_at) / RFU SNX32 (11753110_a_at) / Fold change /veh SNX32 (11753110_a_at) / RFU CDHR5 (11726645_a_at) / Fold change /veh CDHR5 (11726645_a_at) / RFU RCAN1 (11760418_a_at) / Fold change /veh RCAN1 (11760418_a_at) / RFU FAM167A (11723789_a_at) / Fold change /veh FAM167A (11723789_a_at) / RFU FAM26E (11764081_at) / Fold change /veh FAM26E (11764081_at) / RFU ISYNA1 (11749810_s_at) / Fold change /veh ISYNA1 (11749810_s_at) / RFU ACY1 (11761880_at) / Fold change /veh ACY1 (11761880_at) / RFU 11764098_at / Fold change /veh 11764098_at / RFU SAMD14 (11745864_x_at) / Fold change /veh SAMD14 (11745864_x_at) / RFU NPB (11741838_a_at) / Fold change /veh NPB (11741838_a_at) / RFU TMPRSS6 (11731388_a_at) / Fold change /veh TMPRSS6 (11731388_a_at) / RFU KRTAP10-2 (11738614_at) / Fold change /veh KRTAP10-2 (11738614_at) / RFU ARHGAP8 /// PRR5-ARHGAP8 (11727945_x_at) / Fold change /veh ARHGAP8 /// PRR5-ARHGAP8 (11727945_x_at) / RFU KRTAP5-7 /// NADSYN1 (11734609_at) / Fold change /veh KRTAP5-7 /// NADSYN1 (11734609_at) / RFU RASL12 (11751679_a_at) / Fold change /veh RASL12 (11751679_a_at) / RFU CDKN2B (11736163_a_at) / Fold change /veh CDKN2B (11736163_a_at) / RFU PRF1 (11729649_at) / Fold change /veh PRF1 (11729649_at) / RFU, ZNF638 /// ZNF638-IT1 / Fold change vs veh, ZNF638 /// ZNF638-IT1 / RFU, PANK3 / Fold change vs veh, PANK3 / RFU, SH3YL1 / Fold change vs veh, SH3YL1 / RFU, ZEB2 / Fold change vs veh, ZEB2 / RFU, NRIP1 / Fold change vs veh, NRIP1 / RFU, PTTG1IP / Fold change vs veh, PTTG1IP / RFU, CAPN2 / Fold change vs veh, CAPN2 / RFU, MED14 / Fold change vs veh, MED14 / RFU, SNORA58 / Fold change vs veh, SNORA58 / RFU, C1orf63 / Fold change vs veh, C1orf63 / RFU, LRRFIP1 / Fold change vs veh, LRRFIP1 / RFU, NDUFAF7 / Fold change vs veh, NDUFAF7 / RFU, SLC12A2 / Fold change vs veh, SLC12A2 / RFU, IBTK / Fold change vs veh, IBTK / RFU, ESF1 / Fold change vs veh, ESF1 / Fold change vs veh, TMEM50B / RFU, TAOK1 / Fold change vs veh, TAOK1 / RFU, ACBD3 / Fold change vs veh, ACBD3 / RFU, TMA16 / Fold change vs veh, TMA16 / RFU, RWDD3 / Fold change vs veh, RWDD3 / RFU, BCAT1 / Fold change vs veh, BCAT1 / RFU, EDEM3 / Fold change vs veh, EDEM3 / RFU, TMEM33 / Fold change vs veh, TMEM33 / RFU, WDR75 / Fold change vs veh, WDR75 / RFU, AHCTF1 / Fold change vs veh, AHCTF1 / RFU, TFRC / Fold change vs veh, TFRC / RFU, ZDHHC17 / Fold change vs veh, ZDHHC17 / RFU, NOM1 / Fold change vs veh, NOM1 / RFU, ARL8B / Fold change vs veh, ARL8B / RFU, ZBTB11 / Fold change vs veh, ZBTB11 / RFU, TAMM41 / Fold change vs veh, TAMM41 / RFU, KIAA1704 /// LOC100996395 / Fold change vs veh, KIAA1704 /// LOC100996395 / RFU, ING1 / Fold change vs veh, ING1 / RFU, TRMT61B / Fold change vs veh, TRMT61B / RFU, FUBP3 / Fold change vs veh, FUBP3 / RFU, TP53 / Fold change vs veh, TP53 / RFU, TNKS2 / Fold change vs veh, TNKS2 / RFU, ZFP14 / Fold change vs veh, ZFP14 / RFU, ACTR2 / Fold change vs veh, ACTR2 / RFU, PPP3R1 / Fold change vs veh, PPP3R1 / RFU, PIK3R1 / Fold change vs veh, PIK3R1 / RFU, HNRNPA1 / Fold change vs veh, HNRNPA1 / RFU, RNF170 / Fold change vs veh, RNF170 / RFU, ZNF28 / Fold change vs veh, ZNF28 / RFU, RNGTT / Fold change vs veh, RNGTT / RFU, OGT / Fold change vs veh, OGT / RFU, BRD1 / Fold change vs veh, BRD1 / RFU, MARS / Fold change vs veh, MARS / RFU, ZNF655 / Fold change vs veh, ZNF655 / RFU, FAHD1 / Fold change vs veh, FAHD1 / RFU, BDP1 / Fold change vs veh, BDP1 / RFU, LRRCC1 / Fold change vs veh, LRRCC1 / RFU, ARID1A / Fold change vs veh, ARID1A / RFU, ZNF146 / Fold change vs veh, ZNF146 / RFU, ZNF330 / Fold change vs veh, ZNF330 / RFU, GPN3 / Fold change vs veh, GPN3 / RFU, C9orf123 / Fold change vs veh, C9orf123 / RFU, N4BP2L2 / Fold change vs veh, N4BP2L2 / RFU, ARFIP1 / Fold change vs veh, ARFIP1 / RFU, FAM179B / Fold change vs veh, FAM179B / RFU, BCL10 / Fold change vs veh, BCL10 / RFU, UHRF1BP1L / Fold change vs veh, UHRF1BP1L / RFU, BET1 / Fold change vs veh, BET1 / RFU, CNOT2 / Fold change vs veh, CNOT2 / RFU, ZNF268 / Fold change vs veh, ZNF268 / Fold change vs veh, ZNF507 / RFU, DGCR2 / Fold change vs veh, DGCR2 / RFU, WDSUB1 / Fold change vs veh, WDSUB1 / Fold change vs veh, HSP90B1 /// MIR3652 / RFU, ADSS / Fold change vs veh, ADSS / RFU, GK / Fold change vs veh, GK / RFU, ZNF148 / Fold change vs veh, ZNF148 / RFU, TAF9 / Fold change vs veh, TAF9 / RFU, SLC1A5 / Fold change vs veh, SLC1A5 / RFU, SLMO2 / Fold change vs veh, SLMO2 / RFU, ABCC4 / Fold change vs veh, ABCC4 / RFU, LOC101060439 /// RAP1B / Fold change vs veh, LOC101060439 /// RAP1B / RFU, RFX7 / Fold change vs veh, RFX7 / RFU, GTPBP10 / Fold change vs veh, GTPBP10 / RFU, CNEP1R1 / Fold change vs veh, CNEP1R1 / RFU, BIVM-ERCC5 /// ERCC5 / Fold change vs veh, BIVM-ERCC5 /// ERCC5 / RFU, ILF3 / Fold change vs veh, ILF3 / RFU 11762660_at / Fold change /veh 11762660_at / RFU VCAN (11757783_s_at) / Fold change /veh VCAN (11757783_s_at) / RFU DDX43 (11728927_at) / Fold change /veh DDX43 (11728927_at) / RFU KRT8 (11758188_x_at) / Fold change /veh KRT8 (11758188_x_at) / RFU NKD1 (11759106_at) / Fold change /veh NKD1 (11759106_at) / RFU SRD5A1 (11742802_a_at) / Fold change /veh SRD5A1 (11742802_a_at) / RFU TPSAB1 /// TPSB2 (11721975_s_at) / Fold change /veh TPSAB1 /// TPSB2 (11721975_s_at) / RFU GSTM3 (11746129_a_at) / Fold change /veh GSTM3 (11746129_a_at) / RFU IL23R (11737362_x_at) / Fold change /veh IL23R (11737362_x_at) / RFU TMEM51 (11727254_a_at) / Fold change /veh TMEM51 (11727254_a_at) / RFU PIWIL2 (11732686_x_at) / Fold change /veh PIWIL2 (11732686_x_at) / RFU ORM1 (11744905_x_at) / Fold change /veh ORM1 (11744905_x_at) / RFU CCDC152 (11743942_at) / Fold change /veh CCDC152 (11743942_at) / RFU ECM1 (11717891_a_at) / Fold change /veh ECM1 (11717891_a_at) / RFU IL23R (11748794_a_at) / Fold change /veh IL23R (11748794_a_at) / RFU TNFAIP8L3 (11732012_x_at) / Fold change /veh TNFAIP8L3 (11732012_x_at) / RFU MBOAT4 (11741988_at) / Fold change /veh MBOAT4 (11741988_at) / RFU 11764193_at / Fold change /veh 11764193_at / RFU TMEM53 (11763286_at) / Fold change /veh TMEM53 (11763286_at) / RFU MAGEB2 (11727129_at) / Fold change /veh MAGEB2 (11727129_at) / RFU TMEM200A (11744735_a_at) / Fold change /veh TMEM200A (11744735_a_at) / RFU CCDC152 (11751479_a_at) / Fold change /veh CCDC152 (11751479_a_at) / RFU FAM211A (11726209_a_at) / Fold change /veh FAM211A (11726209_a_at) / RFU RGS16 (11746705_a_at) / Fold change /veh RGS16 (11746705_a_at) / RFU VCAN (11755009_s_at) / Fold change /veh VCAN (11755009_s_at) / RFU RHOB (11743442_s_at) / Fold change /veh RHOB (11743442_s_at) / RFU RGS16 (11720943_a_at) / Fold change /veh RGS16 (11720943_a_at) / RFU RGS16 (11720944_at) / Fold change /veh RGS16 (11720944_at) / RFU, VPS4B / Fold change vs veh, VPS4B / RFU, CREB1 / Fold change vs veh, CREB1 / RFU, DNAJC13 / Fold change vs veh, DNAJC13 / RFU, GNAQ / Fold change vs veh, GNAQ / RFU, CDK5R1 / Fold change vs veh, CDK5R1 / RFU, ZRANB3 / Fold change vs veh, ZRANB3 / RFU, CUL4A / Fold change vs veh, CUL4A / RFU, CCNY / Fold change vs veh, CCNY / RFU, UFL1 / Fold change vs veh, UFL1 / RFU, COG3 / Fold change vs veh, COG3 / RFU, DIAPH2 / Fold change vs veh, DIAPH2 / RFU, SKA2 / Fold change vs veh, SKA2 / RFU, AFF3 / Fold change vs veh, AFF3 / RFU, LMF1 / Fold change vs veh, LMF1 / RFU, IPO11 / Fold change vs veh, IPO11 / RFU, DFFB / Fold change vs veh, DFFB / RFU, FOXP1 / Fold change vs veh, FOXP1 / RFU, CARD8 / Fold change vs veh, CARD8 / RFU, STRN3 / Fold change vs veh, STRN3 / RFU, ADK / Fold change vs veh, ADK / RFU, RASSF2 / Fold change vs veh, RASSF2 / RFU, WIPF1 / Fold change vs veh, WIPF1 / RFU, LARP1B / Fold change vs veh, LARP1B / RFU, RASA1 / Fold change vs veh, RASA1 / RFU, RB1 / Fold change vs veh, RB1 / RFU, PPFIA1 / Fold change vs veh, PPFIA1 / RFU, MAT2A / Fold change vs veh, MAT2A / RFU, CCT5 / Fold change vs veh, CCT5 / RFU, WDR92 / Fold change vs veh, WDR92 / RFU, CUX1 / Fold change vs veh, CUX1 / RFU, TTC7A / Fold change vs veh, TTC7A / RFU, TMEM135 / Fold change vs veh, TMEM135 / RFU, DEPTOR / Fold change vs veh, DEPTOR / RFU, CPM / Fold change vs veh, CPM / RFU, DNAJB6 / Fold change vs veh, DNAJB6 / RFU, CACNA2D3 / Fold change vs veh, CACNA2D3 / RFU, DTX4 / Fold change vs veh, DTX4 / RFU, TFCP2 / Fold change vs veh, TFCP2 / RFU, GMCL1 /// GMCL1P1 / Fold change vs veh, GMCL1 /// GMCL1P1 / RFU, AEBP2 / Fold change vs veh, AEBP2 / RFU, SNHG1 /// SNORD22 /// SNORD25 /// SNORD26 /// SNORD27 /// SNORD28 /// SNORD29 /// SNORD31 / Fold change vs veh, SNHG1 /// SNORD22 /// SNORD25 /// SNORD26 /// SNORD27 /// SNORD28 /// SNORD29 /// SNORD31 / Fold change (Aza/veh), C12orf56 (ProbeSet 11735607_a_at) / Fold change (ACY-1035/veh), C12orf56 (ProbeSet 11735607_a_at) / Fold change (Aza/veh), FGFR1OP (ProbeSet 11751329_s_at) / Fold change (ACY-1035/veh), FGFR1OP (ProbeSet 11751329_s_at) / Fold change (Aza/veh), VPS36 (ProbeSet 11739960_a_at) / Fold change (ACY-1035/veh), VPS36 (ProbeSet 11739960_a_at) / RFU SYPL1 (11715823_x_at) / Fold change /veh SYPL1 (11715823_x_at) / RFU IGFBP7 (11715501_s_at) / Fold change /veh IGFBP7 (11715501_s_at) / RFU REEP3 (11722064_at) / Fold change /veh REEP3 (11722064_at) / RFU IGLL1 (11728026_x_at) / Fold change /veh IGLL1 (11728026_x_at): dose or concentration left out as unconfirmed
# Conditions: ProbeSet 11753616_s_at; LIST B
compound,measurement,value
Nc1ncn([C@@H]2O[C@H](CO)[C@@H](O)[C@H]2O)c(=O)n1 [azacitidine],"Fold change vs veh, ARL8B",0.84
